Consider 63 compounds from patent publication US9393221B2, “Methods and compounds for reducing intracellular lipid storage” (THE GENERAL HOSPITAL CORPORATION, priority 2011, dated 2016).

Molecules are shown by their SMILES. Where a name gives a salt, the structure may show the parent alone.

The first assay concerns ATGL-KO iPSCs. Description: High throughput iPSC chemical screening, Oil Red O (ORO) lipid accumulation. As to Z-score: test concentration or dose not given here. Type of assay: cell-based, mouse.
Conditions: not given
As for `COc1cc2c(c(OC)c1OC)-c1ccc(OC)c(=O)cc1[C@@H](NC(C)=O)CC2` [Colchicine], the Z-score stood at 35.6417.

Staying with this assay, now noted: glycolytic switch compounds.
`CCN(CC)CCOc1ccc(C(=C(Cl)c2ccccc2)c2ccccc2)cc1.O=C(O)CC(O)(CC(=O)O)C(=O)O` [Clomiphene citrate (Z,E), reference compound]: the “Rank in normalized ORO score from screen” value came out at 928. As for `Clc1ccc(C(OCCN2CCCCC2)c2ccccc2)cc1` (stereo not shown) [Cloperastine hydrochloride], the “Rank in normalized ORO score from screen” value is 863. Same read-out and setting: the result for `Clc1ccccc1C(c1ccccc1)(c1ccccc1)n1ccnc1` [Clotrimazole] reads 37; that for `CN(C)CCC=C1c2ccccc2C=Cc2ccccc21` [Cyclobenzaprine hydrochloride], 579.

Still in this assay, the particulars now being: normalized ORO level vs DMSO-treated cells; compound present during 7 days differentiation, 96-well; negative = decrease in lipid accumulation.
With `C[N+]12CCC(CC1)C(OC(=O)C(O)(c1ccccc1)c1ccccc1)C2` (stereo not shown) [Clidinium bromide, reference compound], the Z-score is recorded as −1.8548. On to `Oc1c(I)cc(Cl)c2cccnc12` [Clioquinol], for which the Z-score is on record as −1.5195.

In the case of `CCC(=O)O[C@]1(C(=O)CCl)[C@@H](C)C[C@H]2[C@@H]3CCC4=CC(=O)C=C[C@]4(C)[C@@]3(F)[C@@H](O)C[C@@]21C` [Clobetasol propionate], the Z-score came out at 2.1955. Consider `C[C@@H]1C[C@H]2[C@@H]3C[C@H](F)C4=CC(=O)C=C[C@]4(C)[C@@]3(Cl)[C@@H](O)C[C@]2(C)[C@H]1C(=O)COC(=O)C(C)(C)C` [Clocortolone pivalate], for which the Z-score amounted to 1.217. For `CC(C)/N=c1\cc2n(-c3ccc(Cl)cc3)c3ccccc3nc-2cc1Nc1ccc(Cl)cc1` [Clofazimine], the Z-score is −0.5584. With `CC(C)(Oc1ccc(Cl)cc1)C(=O)O` [Clofibric acid], the Z-score came to 2.297. Take `CCN(CC)CCOc1ccc(C(=C(Cl)c2ccccc2)c2ccccc2)cc1.O=C(O)CC(O)(CC(=O)O)C(=O)O` [Clomiphene citrate (Z,E), reference compound]: the Z-score was 1.107. `Clc1cccc(Cl)c1N=C1NCCN1` [Clonidine hydrochloride] showed a Z-score of 0.04408. Still for that read-out and setting: the result for `C[C@@H]1CCC[C@H](C)N1NC(=O)c1ccc(Cl)c(S(N)(=O)=O)c1` [Clopamide] reads −0.9945; that for `Clc1ccc(C(OCCN2CCCCC2)c2ccccc2)cc1` (stereo not shown) [Cloperastine hydrochloride], 0.7661; that for `C#CCN(C)CCCOc1ccc(Cl)cc1Cl` [Clorgyline hydrochloride], −0.8658. On to `Nc1cc(C(Cl)=C(Cl)Cl)c(S(N)(=O)=O)cc1S(N)(=O)=O` [Clorsulon], for which the Z-score was −0.1576. As to `Clc1ccccc1C(c1ccccc1)(c1ccccc1)n1ccnc1` [Clotrimazole], the Z-score is listed as −1.6708. Take `Cc1onc(-c2ccccc2Cl)c1C(=O)N[C@@H]1C(=O)N2[C@@H]1SC(C)(C)[C@@H]2C(=O)O` [Cloxacillin sodium salt]: the Z-score is −1.0101. `CN1CCN(C2=Nc3cc(Cl)ccc3Nc3ccccc32)CC1` [Clozapine] gave a Z-score of 0.4154. On to `CCN1C[C@]2(COC)CC[C@H](O)[C@@]34C5C[C@@H]6[C@@H](OC)C[C@](O)(C(CC23)C14)C5[C@H]6OC(C)=O` (stereo partly shown) [Condelphine], for which the Z-score amounted to 0.3143. The same measure, in the same setting: the result for `COc1ccc(C(=O)OC2C[C@H]3CC[C@@H](C2)N3C)cc1OC.Cl` (stereo partly shown) [Convolamine hydrochloride] reads −1.0829; that for `COc1cc2cc3c4cc(OC)c(OC)cc4cc[n+]3c(C)c2cc1OC.O.[Cl-]` [Coralyne chloride hydrate], 7.275; that for `C[C@]12C[C@H](O)[C@H]3[C@@H](CCC4=CC(=O)CC[C@@]43C)[C@@H]1CC[C@@H]2C(=O)CO` [Corticosterone], −1.2709.

For `C[C@]12CCC(=O)C=C1CC[C@@H]1[C@@H]2C(=O)C[C@@]2(C)[C@H]1CC[C@]2(O)C(=O)CO` [Cortisone], the Z-score is recorded as −1.8033. Regarding `COC(=O)[C@H]1[C@H]2C[C@H]3c4[nH]c5ccccc5c4CCN3C[C@@H]2CC[C@@H]1O.Cl` [Corynanthine hydrochloride], the Z-score is on record as −0.2498. For the compound `O=C(O)c1cc(=O)c2c(OCC(O)COc3cccc4oc(C(=O)O)cc(=O)c34)cccc2o1` [Cromolyn disodium salt], the Z-score is reported as −1.7273. Take `CC=CC(=O)N(CC)c1ccccc1C` [Crotamiton]: the Z-score turned out to be 2.886. In turn, `CC1(C)S[C@@H]2[C@H](NC(=O)C3(N)CCCCC3)C(=O)N2[C@H]1C(=O)O` [Cyclacillin] had a Z-score of 2.402.

Consider `CN1CCN(C(c2ccccc2)c2ccccc2)CC1` [Cyclizine hydrochloride], for which the Z-score is on record as −0.9231. Same read-out and setting: the result for `CN(C)CCC=C1c2ccccc2C=Cc2ccccc21` [Cyclobenzaprine hydrochloride] reads −0.1421; that for `C[C@@H]1C[C@@H]([C@H](O)CC2CC(=O)NC(=O)C2)C(=O)[C@@H](C)C1` [Cycloheximide], 56.1385; that for `NS(=O)(=O)c1cc2c(cc1Cl)NC(CC1CCCC1)NS2(=O)=O` (stereo not shown) [Cyclopenthiazide], −1.4107. In the case of `CN(C)CCOC(=O)C(c1ccccc1)C1(O)CCCC1` (stereo not shown) [Cyclopentolate hydrochloride], the Z-score came to 1.252. Consider `CN1CCC(=C2c3ccccc3C=Cc3ccccc32)CC1` [Cyproheptadine hydrochloride], for which the Z-score was −1.6013.

`CC(=O)O[C@]1(C(C)=O)CC[C@H]2[C@@H]3C=C(Cl)C4=CC(=O)[C@@H]5C[C@@H]5[C@]4(C)[C@H]3CC[C@@]21C` [Cyproterone acetate]: the Z-score is on record as −1.2528. Still for that read-out and setting: next, `N[C@@H]1CONC1=O` [D-cycloserine]: −1.0332; `CN(C)/N=N/c1[nH]cnc1C(N)=O` [Dacarbazine]: −0.3016; `C#C[C@]1(O)CC[C@H]2[C@@H]3CCC4=Cc5oncc5C[C@]4(C)[C@H]3CC[C@@]21C` [Danazol]: −1.2973. Regarding `O=C1CN(/N=C/c2ccc(-c3ccc([N+](=O)[O-])cc3)o2)C(O)=N1` [Dantrolene sodium salt], the Z-score is −0.3347.

For the compound `Nc1ccc(S(=O)(=O)c2ccc(N)cc2)cc1` [Dapsone], the Z-score is listed as −0.4061.

The compound `COc1cccc2c1C(=O)c1c(O)c3c(c(O)c1C2=O)C[C@@](O)(C(C)=O)C[C@@H]3O[C@H]1C[C@H](N)[C@H](O)[C@H](C)O1` [Daunorubicin hydrochloride] registered a Z-score of 28.7571. With `N=C(N)N1CCc2ccccc2C1` [Debrisoquin sulfate], the Z-score was found to be 0.2228. On to `C[N+](C)(C)CCCCCCCCCC[N+](C)(C)C` [Decamethonium bromide], for which the Z-score is given as −0.0864.

`CC(=O)N(O)CCCCCNC(=O)CCC(=O)N(O)CCCCCNC(=O)CCC(=O)N(O)CCCCCN` [Deferoxamine mesylate] returned a Z-score of 12.8786. On to `C[C@H](CCC(=O)O)[C@H]1CC[C@H]2[C@@H]3C(=O)C[C@@H]4CC(=O)CC[C@]4(C)[C@H]3CC(=O)[C@]12C` [Dehydrocholic acid], for which the Z-score is on record as −1.006. Same read-out and setting: the result for `CC(=O)O[C@H]1CC[C@@]2(C)C(=CC[C@@H]3[C@@H]2CC[C@]2(C)C(=O)CC[C@@H]32)C1` [Dehydroisoandosterone 3-acetate] reads −0.697.

For the compound `CCN1C[C@]2(COC)CC[C@H](OC)[C@]34C5C[C@@H]6[C@@H](OC)C[C@@]7(OCO[C@@]7(C13)[C@@H](O)C24)C5[C@H]6OC` (stereo partly shown) [Delcorine], the Z-score is given as −1.4115. With `CCN1C[C@]2(COC)CC[C@H](O)[C@]34C1[C@@](O)([C@@H](OC)[C@H]23)[C@@]1(O)C[C@H](OC)[C@H]2C[C@@H]4[C@@H]1[C@H]2OC` [Delsoline], the Z-score is on record as −1.3301. Turning to `CCN1C[C@]2(C)CC[C@H](OC)[C@@]34C1[C@]1(OCO[C@@]15C[C@H](OC)[C@H]1C[C@]3(O)[C@@H]5[C@H]1OC)[C@@H](OC(C)=O)[C@H]24` [Deltaline], the Z-score is −1.2966.

As for `CN(CCCCCCCCCCN(C)C(=O)Oc1cccc([N+](C)(C)C)c1)C(=O)Oc1cccc([N+](C)(C)C)c1` [Demecarium bromide], the Z-score is listed as −0.6009.

Turning to `CN(C)[C@@H]1C(O)=C(C(N)=O)C(=O)[C@@]2(O)C(O)=C3C(=O)c4c(O)ccc(Cl)c4[C@@H](O)[C@H]3C[C@@H]12` [Demeclocycline hydrochloride], the Z-score was 1.787. In the case of `CC[N+](CC)(CC(=O)Nc1c(C)cccc1C)Cc1ccccc1` [Denatonium benzoate], the Z-score was −0.1971. `C[C@]12CC[C@H]3[C@@H](CCC4=CC(=O)CC[C@@]43C)[C@@H]1CC[C@@H]2C(=O)CO` [Deoxycorticosterone]: the Z-score was 0.6523. `Cc1cc(N)c2ccccc2[n+]1CCCCCCCCCC[n+]1c(C)cc(N)c2ccccc21` [Dequalinium dichloride] registered a Z-score of 42.6725. In turn, `CNCCCN1c2ccccc2CCc2ccccc21` [Desipramine hydrochloride] yielded a Z-score of 0.2168.

In the case of `CC(=O)OCC(=O)[C@@]1(O)[C@H](C)C[C@H]2[C@@H]3CCC4=CC(=O)C=C[C@]4(C)[C@@]3(F)[C@@H](O)C[C@@]21C` [Dexamethasone acetate], the Z-score is −1.3076. On the same count and under the same terms, the result for `CC1=NS(=O)(=O)c2cc(Cl)ccc2N1` [Diazoxide] reads 0.5969; that for `CCCCOc1cc(C(=O)NCCN(CC)CC)c2ccccc2n1` [Dibucaine], 0.2274. In the case of `NS(=O)(=O)c1cc(Cl)c(Cl)c(S(N)(=O)=O)c1` [Dichlorphenamide], the Z-score came to 0.1624. Regarding `O=C(O)Cc1ccccc1Nc1c(Cl)cccc1Cl` [Diclofenac sodium], the Z-score is on record as −1.137. On the same count and under the same terms, next, `Cc1onc(-c2c(Cl)cccc2Cl)c1C(=O)N[C@@H]1C(=O)N2[C@@H]1SC(C)(C)[C@@H]2C(=O)O` [Dicloxacillin sodium salt]: −0.1893. `O=c1oc2ccccc2c(O)c1Cc1c(O)c2ccccc2oc1=O` [Dicumarol]: the Z-score amounted to 1.966. Turning to `CCN(CC)CCOC(=O)C1(C2CCCCC2)CCCCC1` [Dicyclomine hydrochloride, reference compound], the Z-score is −2.1533. Compound `C/C=C(/C(=C/C)c1ccc(O)cc1)c1ccc(O)cc1` [Dienestrol] registered a Z-score of 0.1268. Turning to `CCN(CC)C(=O)N1CCN(C)CC1` [Diethylcarbamazine citrate], the Z-score is −1.1872.

In the case of `CC/C(=C(/CC)c1ccc(O)cc1)c1ccc(O)cc1` [Diethylstilbestrol], the Z-score is −0.977.
